Structures are written as SMILES.

In one test the target is hNav1.1 (SCN1A) (Homo sapiens, UniProt P35498). Kind of test: Use-dependent inhibition of the CNS Nav1.1 sodium channel. In kind it is cell-based. As to conditions: use-dependent block, 25 Hz, pulse 20, read-out: Nav1.1 UDB 25 Hz 10 uM. The essentials: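 HEK-293 cells stably expressing WT hNav1.1, automated whole-cell patch clamp at 23-25 °C with CsF-based internal and NaCl external solutions, pH 7.35. Compound applied twice, 200 s equilibration; block measured at pulse 20 of a 25 Hz train (0 mV, 20 ms) from −120 mV, as mean % inhibition versus compound-free.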

In another test the target is T1, hNaV1.2 (SCN2A) (Homo sapiens, UniProt Q99250).
T1 construct: expressed in transfected cells
T1 sequence (Q99250 whole entry): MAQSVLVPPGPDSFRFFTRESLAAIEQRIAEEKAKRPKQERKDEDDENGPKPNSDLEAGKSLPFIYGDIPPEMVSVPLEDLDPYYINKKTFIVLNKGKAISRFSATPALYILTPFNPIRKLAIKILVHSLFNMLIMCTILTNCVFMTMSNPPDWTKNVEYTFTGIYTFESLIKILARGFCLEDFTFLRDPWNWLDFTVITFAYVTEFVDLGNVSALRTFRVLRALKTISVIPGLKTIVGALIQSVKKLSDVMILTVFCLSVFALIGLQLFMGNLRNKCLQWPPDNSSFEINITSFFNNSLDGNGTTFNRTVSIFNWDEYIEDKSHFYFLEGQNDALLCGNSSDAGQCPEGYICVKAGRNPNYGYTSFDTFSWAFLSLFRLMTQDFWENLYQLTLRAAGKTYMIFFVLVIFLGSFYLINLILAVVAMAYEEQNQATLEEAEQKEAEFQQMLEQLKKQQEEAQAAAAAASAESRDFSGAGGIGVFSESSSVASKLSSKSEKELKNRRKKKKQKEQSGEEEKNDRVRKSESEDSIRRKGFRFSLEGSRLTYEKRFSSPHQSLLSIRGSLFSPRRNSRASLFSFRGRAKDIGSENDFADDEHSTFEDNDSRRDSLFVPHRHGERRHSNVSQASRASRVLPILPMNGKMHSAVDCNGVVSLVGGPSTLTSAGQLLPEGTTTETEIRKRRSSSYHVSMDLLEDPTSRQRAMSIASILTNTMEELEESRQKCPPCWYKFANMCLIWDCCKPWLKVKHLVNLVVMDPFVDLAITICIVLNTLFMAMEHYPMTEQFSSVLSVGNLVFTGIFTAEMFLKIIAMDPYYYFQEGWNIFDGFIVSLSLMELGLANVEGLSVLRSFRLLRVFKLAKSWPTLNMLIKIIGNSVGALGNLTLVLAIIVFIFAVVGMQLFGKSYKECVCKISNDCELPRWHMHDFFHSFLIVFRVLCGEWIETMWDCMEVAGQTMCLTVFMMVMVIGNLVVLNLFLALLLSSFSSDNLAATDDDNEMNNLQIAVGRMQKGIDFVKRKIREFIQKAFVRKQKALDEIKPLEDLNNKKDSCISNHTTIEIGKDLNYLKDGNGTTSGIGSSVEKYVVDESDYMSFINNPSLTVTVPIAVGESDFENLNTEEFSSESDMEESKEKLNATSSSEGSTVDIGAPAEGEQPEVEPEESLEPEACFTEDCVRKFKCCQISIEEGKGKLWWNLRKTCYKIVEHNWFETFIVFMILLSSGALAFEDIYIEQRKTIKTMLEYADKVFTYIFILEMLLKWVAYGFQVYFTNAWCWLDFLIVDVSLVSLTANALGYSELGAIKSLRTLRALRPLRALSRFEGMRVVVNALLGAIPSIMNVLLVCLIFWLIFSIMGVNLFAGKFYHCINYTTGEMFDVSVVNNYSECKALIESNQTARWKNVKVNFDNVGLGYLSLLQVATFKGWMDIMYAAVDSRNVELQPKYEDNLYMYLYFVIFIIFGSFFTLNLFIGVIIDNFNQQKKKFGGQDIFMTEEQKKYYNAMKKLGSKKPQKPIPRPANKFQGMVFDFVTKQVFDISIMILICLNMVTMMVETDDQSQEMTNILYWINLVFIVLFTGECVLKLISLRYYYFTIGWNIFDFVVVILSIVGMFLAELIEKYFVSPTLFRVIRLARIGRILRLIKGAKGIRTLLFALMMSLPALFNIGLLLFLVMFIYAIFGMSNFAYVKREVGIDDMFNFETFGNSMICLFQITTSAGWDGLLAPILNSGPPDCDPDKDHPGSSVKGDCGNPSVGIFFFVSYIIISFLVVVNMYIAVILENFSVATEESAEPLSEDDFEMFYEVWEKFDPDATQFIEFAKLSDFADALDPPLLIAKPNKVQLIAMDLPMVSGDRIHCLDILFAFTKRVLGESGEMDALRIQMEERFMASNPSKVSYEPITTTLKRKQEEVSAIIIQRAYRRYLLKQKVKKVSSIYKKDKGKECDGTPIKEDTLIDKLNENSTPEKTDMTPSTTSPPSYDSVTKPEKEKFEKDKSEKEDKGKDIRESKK
T1 sequence (Q07699 19-218 partner): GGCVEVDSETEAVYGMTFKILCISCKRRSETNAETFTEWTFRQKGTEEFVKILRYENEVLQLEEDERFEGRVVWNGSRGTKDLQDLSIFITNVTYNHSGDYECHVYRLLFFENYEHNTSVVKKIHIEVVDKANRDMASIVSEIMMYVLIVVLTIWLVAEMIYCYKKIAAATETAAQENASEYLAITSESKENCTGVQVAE
T1 sequence (O60939 30-215 partner): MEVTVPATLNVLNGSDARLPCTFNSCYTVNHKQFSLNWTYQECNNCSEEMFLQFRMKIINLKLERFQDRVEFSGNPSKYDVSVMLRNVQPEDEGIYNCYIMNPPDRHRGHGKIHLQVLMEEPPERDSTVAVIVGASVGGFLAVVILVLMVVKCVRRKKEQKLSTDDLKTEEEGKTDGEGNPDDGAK
Kind of test: Use-dependent inhibition of the CNS Nav1.2 sodium channel. Format: cell-based. As to conditions: use-dependent block, 25 Hz, pulse 20, read-out: Nav1.2 UDB 25 Hz 10 uM. Put shortly: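 Use-dependent block of human Nav1.2 was measured by automated whole-cell patch clamp (QPatch) in HEK-293 cells stably expressing hNaV1.2 with SCN1B and SCN2B. From a holding potential of −120 mV, a train of 20 pulses to 0 mV (20 ms, 25 Hz) was applied. Peak current at pulse 20 was normalized to the first pulse, and percent inhibition was calculated relative to compound-free recordings.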

With `OCC1(COc2noc3ccc(-c4ccc(OC(F)(F)F)cc4)cc23)COC1` [Example 97, (3-(((5-(4-(trifluoromethoxy)phenyl)benzo[d]isoxazol-3-yl)oxy)methyl)oxetan-3-yl)methanol], the figures for the inhibition at 10 µM on hNav1.1 (SCN1A) and at hNaV1.2 (SCN2A) were 46.3% and 34.3%, respectively.
In the case of `CC(C)n1ccnc1COc1noc2ccc(-c3ccc(OC(F)(F)F)cc3)cc12` [Example 48, 3-((1-isopropyl-1H-imidazol-2-yl)methoxy)-5-(4-(trifluoromethoxy)phenyl)benzo[d]isoxazole], the inhibition at 10 µM on hNav1.1 (SCN1A) was found to be 52.8%; on hNaV1.2 (SCN2A), 54.2%.
Turning to `Cc1cccnc1COc1noc2ccc(-c3ccc(OC(F)(F)F)cc3)cc12` [Example 93, 3-((3-methylpyridin-2-yl)methoxy)-5-(4-(trifluoromethoxy)phenyl)benzo[d]isoxazole], the inhibition at 10 µM on hNav1.1 (SCN1A) and on hNaV1.2 (SCN2A) was less than 5% in each case.
Consider `Cc1cc(-c2cc3c(OCc4ncccn4)noc3cc2C)ccc1OC(F)(F)F` [Example 27, 6-methyl-5-(3-methyl-4-(trifluoromethoxy)phenyl)-3-(pyrimidin-2-ylmethoxy)benzo[d]isoxazole], for which the inhibition at 10 µM on hNav1.1 (SCN1A) and at hNaV1.2 (SCN2A) was less than 5% each time.
On to `Cc1cc(-c2ccc(OC(F)(F)F)cc2)cc2c(OCc3ncco3)noc12` [Example 91, 7-methyl-3-(oxazol-2-ylmethoxy)-5-(4-(trifluoromethoxy)phenyl)benzo[d]isoxazole], for which the inhibition at 10 µM on hNav1.1 (SCN1A) is 31.1%; at hNaV1.2 (SCN2A), 46.9%.
For `Cc1cc(-c2cc(C)c3onc(OCc4ncccn4)c3c2)ccc1OC(F)(F)F` [Example 18, 7-methyl-5-(3-methyl-4-(trifluoromethoxy)phenyl)-3-(pyrimidin-2-ylmethoxy)benzo[d]isoxazole], the inhibition at 10 µM at hNav1.1 (SCN1A) and at hNaV1.2 (SCN2A) was less than 5% throughout.
Consider `COc1cc(-c2ccc(OC(F)(F)F)c(C)c2)cc2c(OCc3ncccn3)noc12` [Example 23, 7-methoxy-5-(3-methyl-4-(trifluoromethoxy)phenyl)-3-(pyrimidin-2-ylmethoxy)benzo[d]isoxazole], for which the values for the inhibition at 10 µM at hNav1.1 (SCN1A) and at hNaV1.2 (SCN2A) were less than 5% and 9.9%, respectively.
On the same counts, the results for `O=C1CC[C@H](COc2noc3ccc(-c4ccc(OC(F)(F)F)cc4)cc23)N1` [Example 61, (R)-5-(((5-(4-(trifluoromethoxy)phenyl)benzo[d]isoxazol-3-yl)oxy)methyl)pyrrolidin-2-one] are 28.7% and 31%.
The like results for `CC1(COc2noc3ccc(-c4ccc(OC(F)(F)F)cc4)cc23)COC1` [Example 92, 3-((3-methyloxetan-3-yl)methoxy)-5-(4-(trifluoromethoxy)phenyl)benzo[d]isoxazole] were, in that order, less than 5% and less than 5%.
Consider `Cc1cc(OC(F)(F)F)ccc1-c1cc2c(OCc3ncccn3)noc2cc1C` [Example 29, 6-methyl-5-(2-methyl-4-(trifluoromethoxy)phenyl)-3-(pyrimidin-2-ylmethoxy)benzo[d]isoxazole], for which the inhibition at 10 µM at hNav1.1 (SCN1A) and on hNaV1.2 (SCN2A) was less than 5% each time.
`CC(COc1noc2ccc(-c3ccc(OC(F)(F)F)cc3)cc12)n1cncn1` (stereo not drawn) [Example 77, 3-(2-(1H-1,2,4-triazol-1-yl)propoxy)-5-(4-(trifluoromethoxy)phenyl)benzo[d]isoxazole]: the inhibition at 10 µM on hNav1.1 (SCN1A) is 49.2%; on hNaV1.2 (SCN2A) it was 31.8%.
The like results for `Cc1cccc(COc2noc3ccc(-c4ccc(OC(F)(F)F)cc4)cc23)n1` [Example 95, 3-((6-methylpyridin-2-yl)methoxy)-5-(4-(trifluoromethoxy)phenyl)benzo[d]isoxazole] were, in that order, less than 5% and less than 5%.
Take `Fc1cc(-c2ccc(OC(F)(F)F)cc2)cc2c(OCc3ncccn3)noc12` [Example 17, 7-fluoro-3-(pyrimidin-2-ylmethoxy)-5-(4-(trifluoromethoxy)phenyl)benzo[d]isoxazole]: the inhibition at 10 µM at hNav1.1 (SCN1A) is 5.9%; on hNaV1.2 (SCN2A) it was less than 5%.
The like results for `Fc1cc2onc(OCc3ncccn3)c2cc1-c1ccc2c(c1)OC(F)(F)O2` [Example 35, 5-(2,2-difluorobenzo[d][1,3]dioxol-5-yl)-6-fluoro-3-(pyrimidin-2-ylmethoxy)benzo[d]isoxazole] were, in that order, less than 5% and less than 5%.
Turning to `Cn1cncc1COc1noc2ccc(-c3ccc(OC(F)(F)F)cc3)cc12` [Example 50, 3-((1-methyl-1H-imidazol-5-yl)methoxy)-5-(4-(trifluoromethoxy)phenyl)benzo[d]isoxazole], the inhibition at 10 µM at hNav1.1 (SCN1A) stood at 49.2%; at hNaV1.2 (SCN2A), 27.3%.
Consider `Cc1cc(-c2ccc(OC(F)(F)F)cc2)cc2c(OCCn3cncn3)noc12` [Example 89, 3-(2-(1H-1,2,4-triazol-1-yl)ethoxy)-7-methyl-5-(4-(trifluoromethoxy)phenyl)benzo[d]isoxazole], for which the inhibition at 10 µM at hNav1.1 (SCN1A) worked out at 16.1%; on hNaV1.2 (SCN2A) it was 52%.
As to `COc1ccnc(COc2noc3ccc(-c4ccc(OC(F)(F)F)cc4)cc23)c1` [Example 81, 3-((4-methoxypyridin-2-yl)methoxy)-5-(4-(trifluoromethoxy)phenyl)benzo[d]isoxazole], the inhibition at 10 µM at hNav1.1 (SCN1A) is less than 5%; on hNaV1.2 (SCN2A) it was 21.8%.
Take `Fc1cc2onc(OCc3ncccn3)c2cc1-c1ccc(OC(F)(F)F)cc1` [Example 31, 6-fluoro-3-(pyrimidin-2-ylmethoxy)-5-(4-(trifluoromethoxy)phenyl)benzo[d]isoxazole]: the inhibition at 10 µM on hNav1.1 (SCN1A) and on hNaV1.2 (SCN2A) was less than 5% each time.
For `Cc1nc(C)n(CCOc2noc3ccc(-c4ccc(OC(F)(F)F)cc4)cc23)n1` [Example 76, 3-(2-(3,5-dimethyl-1H-1,2,4-triazol-1-yl)ethoxy)-5-(4-(trifluoromethoxy)phenyl)benzo[d]isoxazole], the inhibition at 10 µM on hNav1.1 (SCN1A) is 27.2%; at hNaV1.2 (SCN2A) it was 27.9%.
As to `COc1cc(-c2ccc(OC(F)(F)F)cc2C)cc2c(OCc3ncccn3)noc12` [Example 25, 7-methoxy-5-(2-methyl-4-(trifluoromethoxy)phenyl)-3-(pyrimidin-2-ylmethoxy)benzo[d]isoxazole], the inhibition at 10 µM on hNav1.1 (SCN1A) and at hNaV1.2 (SCN2A) was less than 5% in each case.
Consider `Cc1nc(C)n(C(C)COc2noc3ccc(-c4ccc(OC(F)(F)F)cc4)cc23)n1` (stereo not drawn) [Example 79, 3-(2-(3,5-dimethyl-1H-1,2,4-triazol-1-yl)propoxy)-5-(4-(trifluoromethoxy)phenyl)benzo[d]isoxazole], for which the results for the inhibition at 10 µM on hNav1.1 (SCN1A) and on hNaV1.2 (SCN2A) were 36.8% and 34%, respectively.
As for `FC(F)(F)Oc1ccc(-c2ccc3onc(OCc4cn[nH]c4)c3c2)cc1` [Example 45, 3-((1H-pyrazol-4-yl)methoxy)-5-(4-(trifluoromethoxy)phenyl)benzo[d]isoxazole], the inhibition at 10 µM came to 63.8% at hNav1.1 (SCN1A) and 42.8% on hNaV1.2 (SCN2A).
On the same counts, the results for `CCn1cncc1COc1noc2ccc(-c3ccc(OC(F)(F)F)cc3)cc12` [Example 49, 3-((1-ethyl-1H-imidazol-5-yl)methoxy)-5-(4-(trifluoromethoxy)phenyl)benzo[d]isoxazole] are 56.4% and 49.9%.
On the same counts, the results for `Cn1cc(COc2noc3ccc(-c4ccc(OC(F)(F)F)cc4)cc23)nn1` [Example 44] are 21.1% and 25.4%.
